According to patent US20240285808A1, “MOLECULAR PROBES FOR IN VIVO DETECTION OF ALDEHYDES” (The General Hospital Corporation, priority 2021, published 2024):

Tests used:
[1] = system: human fibrotic/cirrhotic liver associated with NASH and normal liver tissue; assay: LA-ICP-MS gadolinium imaging of human liver sections incubated with Gd-9; format: binding
Experimental: Liver tissues were obtained from a total of 9 anesthetized patients who underwent surgical resection at Massachusetts General Hospital, and analyzed in accordance with a protocol approved by the Massachusetts General Hospital's Institutional Review Board.
Tissue Analysis for Human Tissues
The dissected tissues were immediately snap frozen in OCT using liquid nitrogen, sectioned into 10-μm-thick slices and stored at −80° C. Subsequently, the tissue sections were first allowed to warm to room temperature for 10 min and then fixed in 60% ethanol for 30 min, and washed with PBS. The following steps were the same as described above for the Sirius red staining and DNPH-reactivity assay.
LA-ICP-MS Gadolinium Imaging Analysis
Sample preparation. Harvested rat livers after MR imaging were immediately snapfrozen in OCT using liquid nitrogen, sectioned into 10-μm-thick slices, stored in −80° C. One slice was assessed by LA-ICP-MS directly. One adjacent slide was incubated with 0.1 mM Gd-9 at 37° C. for 2 h, followed with 0.2 mM NaBH3CN for 2 h and washed with PBS (3×10 min). Another adjacent slide was incubated with 0.1 mM Gd-9 and 10 mM hydrazine at 37° C. for 2 h, followed with 0.2 mM NaBH3CN for 2 hand washed with PBS (3×10 min). Similar procedures were carried out for human tissues. Slides were incubated with 0.1 mM Gd-9 at 37° C. for 2h, followed with 0.2 mM NaBH3CN for 2 h and washed with PBS (3×10 min).
Gadolinium mapping. Elemental images were collected from sections of liver tissue via laser ablation inductively coupled plasma mass spectrometry at the Biomedical National Elemental Imaging Resource (BNEIR). The instrumentation used was a New Wave Research 213 nm laser ablation system with a 10 cm^2 sample chamber, interfaced with an Agilent 7900 ICP-MS system. Samples were ablated in no-gas mode, with helium as a carrier gas at a flow rate of […]. The laser power was 65% and the frequency was 20 Hz. Ablation patterns consisted of continuous lines, with either a 12 μm or […] square beam and a scan speed of 120 μm sec^−1 or 200 μm sec^−1 respectively, as noted. The acquisitions time for gadolinium (mass 157) was 0.015 s. Elemental imaging data was quantified using metal-doped gelatin standards prepared at BNEIR and National Institute of Standards and Technology (NIST) certified references material 1515 (apple leaves). Data reduction was performed in the Iolite software application, using carbon (mass 13) as an internal standard to normalize the data.
The applicability of Gd-9 to assess fibrogenesis in human liver specimens was investigated. Resected human fibrotic/cirrhotic liver associated with NASH (n=5) and normal liver tissue (n=4) (Table C) were sectioned and stained for Lys^Ald.

[2] = system: lung of SAMP8/SAMR1 mice with TAC; assay: MR imaging of lung in transverse aortic constriction (TAC) model; format: in vivo, mouse; details: 20 min post injection
Excerpt: Combined Heart and Lung Fibrosis Model:
Left ventricular dysfunction with pulmonary hypertension was induced by left thoracotomy transverse aortic constriction surgery (TAC) in 6-month-old senescence-accelerated-prone/resistant mice (SAMP8/SAMR1), which is a well-established model of pressure overload-induced cardiac hypertrophy that can induce heart and lung fibrosis. The transverse aorta was encircled with 7-0 nylon suture and tied tightly around a pre-sterilized, blunt-end of a 27-gauge needle. After securing the knot, the needle was removed, and aortic flow resumed. Another two groups of SAMP8 and SAMR1 mice received sham surgery as control. 3-weeks post-surgery, mice were anesthetized with isoflurane (1.5%) and imaged at a 4.7 Tesla Bruker MRI scanner.
For combined heart and lung imaging, a series of baseline images (2D T1 weighted FLASH for heart and 3D-UTE for lung) were first acquired. 2D T1 weighted FLASH: repetition time/echo time=18.24/3.54 ms; flip angle, 50°; field of view, 36×36 mm^2; matrix size, 138×138 mm^2; slice thickness, 1 mm; acquisition time, 3 minutes 50 seconds. 3D-UTE: repetition time/echo time=4/0.01225 ms; flip angle, 16°; field of view, 32×32 mm^2; matrix size, 128×128 mm^2; slice thickness, 0.25 mm; acquisition time, 3 minutes 36 seconds. Then a bolus of Gd-9 complex was administered i.v. and imaging performed for a period of 40 min p.i. with the repetition acquisition of 2D T1 weighted FLASH and 3D-UTE sequences. Following the imaging session, animals were sacrificed and heart and lung tissue was subjected to histopathologic analysis.
For lung imaging analysis, RARE image, FLASH image pre-contrast and immediately post-contrast were used to define regions of interest (ROIs) in the lung that excluded vessels and airways. A total of 6 lung ROIs were defined on axial UTE images to obtain signal intensity (SI); ROIs in the dorsal muscle in each slice were also defined as reference; ROIs in the field of view without any tissue (air) were used to measure the variation in background signal. Then the lung-to muscle ratio (LMR) or contrast to noise ratio (CNR) was averaged from the 6 slices to calculate changes in LMR (ΔLMR) or CNR (ΔCNR) at each time point.

NN1CCN(C(=O)CCC(C(=O)[O-])N2CCN(CC(=O)[O-])CCN(CC(=O)[O-])CCN(C(CCC(=O)N3CCN(N)CC3)C(=O)[O-])CC2)CC1.[Gd+3] (stereo not drawn) [Gd-9, cis-1,4-Gd-(CHyd)2]
average Gd concentration in fibrotic human liver ([1]; across all samples): 80.4±15.5 ppm
average Gd concentration in normal liver ([1]; across all samples): 23.7±10.8 ppm
average Gd concentration in Lys^Ald positive areas ([1]; fibrotic human liver slices incubated with 0.1 mM probe): 30-200 ppm Gd
average Gd concentration in regions with low Lys^Ald ([1]; human liver slices incubated with 0.1 mM probe): < 30 ppm Gd
ΔCNR of lung ([2]; SAMP1-TAC): 1.2 ± 0.3
ΔCNR of lung ([2]; SAMP8-Sham): 0.8 ± 0.5
ΔCNR of lung ([2]; SAMP8-TAC): 3.1 ± 0.9
ΔCNR of lung ([2]; Sham): 0.4 ± 0.2
